{"source": "patent US10227560B2", "about": "“Biomimetic support for three-dimensional cell culturing, method for manufacturing same, and use thereof” (PUSAN NATIONAL UNIVERSITY INDUSTRY-UNIVERSITY COOPERATION …, priority 2014, dated 2019)", "key": {"[1]": {"test_system": "prostate cancer cell line DU-145", "assay": "Anticancer drug susceptibility, WST-1 cell viability, 2D culture vs 3D culture on Fc 4%-Sc 50% fish collagen/PCL nanofiber support", "type": "cell-based", "conditions": "Homo sapiens, 3 μM paclitaxel, read-out: cell viability as compared with the control group", "description": "(§1) First, an Fc 4%-Sc 50% fish collagen/PCL nanofiber support prepared in the same manner as in Example 1, was placed in a 96-well plate and NCI-H1703 and DU-145 cells were inoculated at a concentration of 5×10^4 cells/well. […] The results are expressed as mean±standard deviation (SD) for each analysis. Statistical analysis was performed using a two-tailed t-test and statistical significance was evaluated based on P<0.05."}, "[2]": {"test_system": "human ovarian cancer cell A2780", "assay": "cells", "conditions": "for viability at 0.5 µM: A2780, 24 h", "procedure": "In the case of A2780 cells, 0.125 wt % agarose-7.5 wt % marine collagen-1 wt % alginate composite hydrogel support was prepared in the same manner as in Example 9, the cells were added to 96-well plate to induce the gelation at 4° C. for 5-10 minutes, and then cultured in the medium. In addition, the conventional two-dimensional cell culture was also performed as a control for three-dimensional cell culture.\n(§5) In order to perform a sensitivity assay for an anticancer agent, EL4 and human ovarian cancer cell A2780 were cultured in an agarose-marine collagen-alginate composite hydrogel support in a two-dimensional and three-dimensional environment and an efficacy test for an anticancer agent was performed. EL4 cells cultured in two-dimensional culture conditions and EL4 cells cultured three-dimensionally in an agarose-marine collagen-alginate composite hydrogel support were treated with 5 μM doxorubicin (5927, cell signaling) and 100 μM resveratrol and the human ovarian cancer cell A2780 was treated with paclitaxel at a concentration of 0.5 μM for 24 hours, and then with WST-1 reagent, and absorbance was measured at 450 nm by a microplate reader to calculate percent growth rate.\nIn addition, 10 and 20 μM paclitaxel, and 30 and 50 μM curcumin were added to A2780 cells cultured in two-dimensional condition and A2780 cells cultured three-dimensionally for 7 days in agarose-marine collagen-alginate composite hydrogel supports, and the control group was treated with DMSO at the same concentration as the experimental group. The WST-1 reagent was then treated and the absorbance at 450 nm was measured by a microplate reader to calculate the percentage growth rate."}, "[3]": {"test_system": "human ovarian cancer cell R182", "description": "(§2) The cytotoxicity assay was performed by the conventional method [H. Lee et al., Regul. Pept. (2008), 147, 72-81]. The cells of Reference Example 1 were dispensed in a 96-well plate at a concentration of 1×10^4 cells/well for R182 and A2780 cells together with 0.1 mL of 10% FBS containing cell medium, and a concentration of 1×10^5 cells/well for […] the cells were cultured for 24 hours and then cultured for 12-16 hours in the absence of FBS.\n(§3) The cultured cells were treated with various concentrations of calcium chloride (CaCl2, Sigma-Aldrich) at concentrations of 10, 50, 100, 200 and 300 mM and cultured for 18 to 24 hours to perform WST-1 assay (EZ-Cytox Cell Viability Assay kit, Daeillab Service, Seoul, Korea) for cell cytotoxicity assay.\n(§4) WST-1 reagent of 10 μL was added to each well and incubated for 2 hours in a humidified incubator at 37° C. and 5% CO2 and the absorbance was measured at 450 nm using a microplate reader (Tecan, M, Switzerland) to calculate the percent growth rate."}, "[4]": {"test_system": "human ovarian cancer cells A2780", "description": "as §2, §3, §4"}, "[5]": {"test_system": "mouse T cell lymphoma cells (EL4)", "conditions": "18 to 24 hours", "description": "as §2, §3, §4"}, "CREC cells": {"test_system": "CREC cells", "conditions": "18 to 24 hours", "procedure": "The cells of Reference Example 1 were dispensed in a 96-well plate at a concentration of 1×10^4 cells/well for R182 and A2780 cells together with 0.1 mL of 10% FBS containing cell medium, and a concentration of 1×10^5 cells/well for R182 and A2780 cells, and the cells were cultured for 24 hours and then cultured for 12-16 hours in the absence of FBS."}, "[6]": {"test_system": "human non-small cell lung cancer (NCI-H1703) cells", "assay": "Anticancer drug susceptibility, WST-1 cell viability, 2D culture vs 3D culture on Fc 4%-Sc 50% fish collagen/PCL nanofiber support", "type": "cell-based", "conditions": "3 μM doxorubicin, read-out: cell viability as compared with the control group", "description": "as §1"}, "EL4 cells": {"test_system": "EL4 cells", "assay": "cells", "conditions": "Mus musculus", "procedure": "In the case of EL4 cells, 0.125 wt % agarose-10 wt % marine collagen-1 wt % alginate composite hydrogel support was prepared in the same manner as in Example 9, and cells were added, and the mixture liquid was added to a 1 mL syringe with 80 μL to induce the gelation at 4° C. for 5-10 minutes, and then cultured in a 48-well plate.\nas §5"}, "[7]": {"conditions": "EL4, read-out: cell viability compared to the control group"}, "[8]": {"conditions": "EL4, read-out: viability as compared with the control group"}}, "note": "Read-outs that look alike come from different tables or passages of the source.", "data": [{"smiles": "CC(=O)O[C@H]1C(=O)[C@@]2(C)[C@H]([C@H](OC(=O)c3ccccc3)[C@]3(O)C[C@H](OC(=O)[C@H](O)[C@@H](NC(=O)c4ccccc4)c4ccccc4)C(C)=C1C3(C)C)[C@]1(OC(C)=O)CO[C@@H]1C[C@@H]2O", "note": "[paclitaxel]", "values": [{"measurement": "viability at 3 µM", "setting": "[1]; DU-145, 24 h, 24 hours, three-dimensional environment (Fc 4%-Sc 50% support)", "result": 93.5, "unit": "%"}, {"measurement": "viability at 3 µM", "setting": "[1]; DU-145, 24 h, 24 hours, two-dimensional environment", "result": 50.2, "unit": "%"}, {"measurement": "viability at 3 µM", "setting": "[1]; DU-145, 48 h, 48 hours, three-dimensional environment (Fc 4%-Sc 50% support)", "result": 64.2, "unit": "%"}, {"measurement": "viability at 3 µM", "setting": "[1]; DU-145, 48 h, 48 hours, two-dimensional environment", "result": 14.6, "unit": "%"}, {"measurement": "viability at 10 µM", "setting": "[2]; A2780, 10 μM paclitaxel, two-dimensional environment", "result": 12.3, "unit": "%"}, {"measurement": "viability at 20 µM", "setting": "[2]; A2780, 20 μM paclitaxel, two-dimensional environment", "result": 6.4, "unit": "%"}, {"measurement": "viability at 0.5 µM", "setting": "[2]; read-out: cell viability, 0.5 μM paclitaxel, 24 hours, three-dimensional environment (hydrogel support)", "result": 94.2, "unit": "%"}, {"measurement": "viability at 0.5 µM", "setting": "[2]; read-out: viability as compared with the control group, 0.5 μM paclitaxel, 24 hours, two-dimensional environment", "result": 60.9, "unit": "%"}, {"measurement": "viability at 10 µM", "setting": "[2]; A2780, 168 h, 10 μM paclitaxel, three-dimensional environment (cultured 7 days in hydrogel support)", "result": 40.2, "unit": "%"}, {"measurement": "viability at 20 µM", "setting": "[2]; A2780, 168 h, 20 μM paclitaxel, three-dimensional environment (cultured 7 days in hydrogel support)", "result": 51.4, "unit": "%"}]}, {"smiles": "[Ca+2].[Cl-].[Cl-]", "note": "[CaCl2, calcium chloride]", "values": [{"measurement": "cytotoxic effect (WST-1, percent growth rate)", "setting": "[3]; 50 mM", "result": 34.1, "unit": "%"}, {"measurement": "cytotoxic effect (WST-1, percent growth rate)", "setting": "[3]; 100 mM", "result": 26.4, "unit": "%"}, {"measurement": "cytotoxic effect (WST-1, percent growth rate)", "setting": "[3]; 150 mM", "result": 21.1, "unit": "%"}, {"measurement": "cytotoxic effect (WST-1, percent growth rate)", "setting": "[3]; 200 mM", "result": 21.4, "unit": "%"}, {"measurement": "cytotoxic effect (WST-1, percent growth rate)", "setting": "[3]; 250 mM", "result": 24.9, "unit": "%"}, {"measurement": "cytotoxic effect (WST-1, percent growth rate)", "setting": "[3]; 300 mM", "result": 25.6, "unit": "%"}, {"measurement": "dose-dependent cytotoxic effect (WST-1, percent growth rate)", "setting": "[4]; 50 mM", "result": 74.9, "unit": "%"}, {"measurement": "dose-dependent cytotoxic effect (WST-1, percent growth rate)", "setting": "[4]; 100 mM", "result": 65.9, "unit": "%"}, {"measurement": "dose-dependent cytotoxic effect (WST-1, percent growth rate)", "setting": "[4]; 150 mM", "result": 41.5, "unit": "%"}, {"measurement": "dose-dependent cytotoxic effect (WST-1, percent growth rate)", "setting": "[4]; 200 mM", "result": 37.9, "unit": "%"}, {"measurement": "dose-dependent cytotoxic effect (WST-1, percent growth rate)", "setting": "[4]; 250 mM", "result": 39.5, "unit": "%"}, {"measurement": "dose-dependent cytotoxic effect (WST-1, percent growth rate)", "setting": "[4]; 300 mM", "result": 43.7, "unit": "%"}, {"measurement": "dose-dependent cytotoxic effect (WST-1, percent growth rate)", "setting": "[5]; 10 mM", "result": 101.3, "unit": "%"}, {"measurement": "dose-dependent cytotoxic effect (WST-1, percent growth rate)", "setting": "[5]; 50 mM", "result": 59.2, "unit": "%"}, {"measurement": "dose-dependent cytotoxic effect (WST-1, percent growth rate)", "setting": "[5]; 100 mM", "result": 25.4, "unit": "%"}, {"measurement": "dose-dependent cytotoxic effect (WST-1, percent growth rate)", "setting": "[5]; 200 mM", "result": 11.2, "unit": "%"}, {"measurement": "dose-dependent cytotoxic effect (WST-1, percent growth rate)", "setting": "[5]; 300 mM", "result": 9.7, "unit": "%"}, {"measurement": "dose-dependent cytotoxic effect (WST-1, percent growth rate)", "setting": "CREC cells; 10 mM", "result": 81.1, "unit": "%"}, {"measurement": "dose-dependent cytotoxic effect (WST-1, percent growth rate)", "setting": "CREC cells; 50 mM", "result": 36.8, "unit": "%"}, {"measurement": "dose-dependent cytotoxic effect (WST-1, percent growth rate)", "setting": "CREC cells; 100 mM", "result": 23.0, "unit": "%"}, {"measurement": "dose-dependent cytotoxic effect (WST-1, percent growth rate)", "setting": "CREC cells; 200 mM", "result": 9.9, "unit": "%"}, {"measurement": "dose-dependent cytotoxic effect (WST-1, percent growth rate)", "setting": "CREC cells; 300 mM", "result": 10.3, "unit": "%"}]}, {"smiles": "COc1cccc2c1C(=O)c1c(O)c3c(c(O)c1C2=O)C[C@@](O)(C(=O)CO)C[C@@H]3O[C@H]1C[C@H](N)[C@H](O)[C@H](C)O1", "note": "[doxorubicin]", "values": [{"measurement": "viability at 3 µM", "setting": "[6]; NCI-H1703, 24 h, 24 hours, three-dimensional environment (Fc 4%-Sc 50% support)", "result": 94.5, "unit": "%"}, {"measurement": "viability at 3 µM", "setting": "[6]; NCI-H1703, 24 h, 24 hours, two-dimensional environment", "result": 55.1, "unit": "%"}, {"measurement": "viability at 3 µM", "setting": "[6]; NCI-H1703, 48 h, 48 hours, three-dimensional environment (Fc 4%-Sc 50% support)", "result": 95.7, "unit": "%"}, {"measurement": "viability at 3 µM", "setting": "[6]; NCI-H1703, 48 h, 48 hours, two-dimensional environment", "result": 40.8, "unit": "%"}, {"measurement": "viability at 5 µM", "setting": "EL4 cells; [7]", "result": 71.4, "unit": "%"}, {"measurement": "viability at 5 µM", "setting": "EL4 cells; [8]", "result": 58.6, "unit": "%"}]}, {"smiles": "Oc1ccc(C=Cc2cc(O)cc(O)c2)cc1", "note": "[resveratrol]", "values": [{"measurement": "viability at 100 µM", "setting": "EL4 cells; [7]", "result": 93.5, "unit": "%"}, {"measurement": "viability at 100 µM", "setting": "EL4 cells; [8]", "result": 50.2, "unit": "%"}]}, {"smiles": "COc1cc(/C=C/C(=O)CC(=O)/C=C/c2ccc(O)c(OC)c2)ccc1O", "note": "[curcumin]", "values": [{"measurement": "viability at 30 µM", "setting": "[2]; A2780, read-out: cell viability, 30 μM curcumin, second pair of values, printed again as two-dimensional environment", "result": 95, "unit": "%"}, {"measurement": "viability at 30 µM", "setting": "[2]; A2780, read-out: cell viability, 30 μM curcumin, two-dimensional environment", "result": 42.5, "unit": "%"}, {"measurement": "viability at 50 µM", "setting": "[2]; A2780, read-out: cell viability, 50 μM curcumin, second pair of values, printed again as two-dimensional environment", "result": 82.4, "unit": "%"}, {"measurement": "viability at 50 µM", "setting": "[2]; A2780, read-out: cell viability, 50 μM curcumin, two-dimensional environment", "result": 36.7, "unit": "%"}]}]}
